In US9237996B2, “Glucosyltransferase inhibitor containing epigallocatechin gallate polymer as active ingredient” (priority 2008, dated 2016):

Legend:
[1] = target: T1, glucosyltransferase B (GTFB) (Streptococcus mutans serotype c, UniProt P08987); assay: Glucosyltransferase inhibitory activity, turbidity (550 nm) of water-insoluble glucan, rGTFB; format: biochemical; conditions: 37° C. overnight
T1 construct: made in house; host or cells: Escherichia coli XL-2 harboring plasmid pSK6
Description: (§1) The glucosyltransferase inhibitory activity can be measured by using any one of the evaluation methods described in prior-art literatures set forth in Background Art. For example, glucosyltransferase prepared from Streptococcus mutans etc. is added to an aqueous solution containing sucrose, and incubated at about the same temperature (about 37° C.) as in the oral cavity for less than 24 hours, preferably about 16 to 20 hours to enzymatically produce glucan from sucrose. Since glucan is insoluble in water, the turbidity of the resultant reaction solution (for example, turbidity at a wavelength of 550 nm) is measured. In this manner, the yield of glucan can be evaluated. If the yield of glucan low (in other words, turbidity is low), it is said that glucosyltransferase activity is more inhibited than that of the case where the yield of glucan is large (in other words, turbidity is high).
rGTF was prepared by the method described in the paper of M. matsumoto et al, FEMS Microbiology Letters 228 (2003) 73-80. More specifically, Escherichia coli XL-2 strain harboring a plasmid pSK6 having a gene encoding glucosyltransferase B (GTFB) of Streptococcus mutans was subjected to shaking culture performed in Luria Bertani liquid medium containing ampicillin (100 μg/mL) and tetracycline (7.5 μg/mL) at 37° C. for 16 hours. Bacterial cells were collected by centrifugally separating the medium, suspended in a 10 mM phosphate buffer (pH 6.5) previously cooled and crushed by an ultrasonic generator (UD201 type, manufactured by Tomy Seiko Co., Ltd., Tokyo) under ice cooling. After crushed, precipitates were centrifugally removed at 12,000×g for 30 minutes. The resultant supernatant was used as glucosyltransferase B (rGTFB) and put in use in later experiments.
The rGTFB having a specific activity of 503 mU/mg protein and the rGTFC having a specific activity of 6.3 to 22.3 mU/mg protein were used as a mixture. […] Protein was quantified by using the bicinchonine acid method (BCA method) (BCA protein assay kit, manufactured by PIERCE).
(§2) With 2 mL of 0.1M KPB (pH6.0) containing 1% sucrose-containing 0.1% dextran T10, rGTFB or rGTFC (amount corresponding to 15 mU (average value)) obtained in Example 2, and each of the above samples (final concentration: 0.1 mg/mL) were mixed. […] The turbidity (550 nm) of the resultant reaction solution was measured to obtain the yield of glucan insoluble in water. […]
as §2, with “1% sucrose and” for “1% sucrose-containing”, “Example 2” for “Example 2,”, “concentration: 0.05” for “concentration: 0.1”

[2] = target: T2, glucosyltransferase C (GTFC) (Streptococcus mutans serotype c, UniProt P13470); assay: Glucosyltransferase inhibitory activity, turbidity (550 nm) of water-insoluble glucan, rGTFC; format: biochemical; conditions: 37° C. overnight
T2 construct: made in house; host or cells: Escherichia coli XL-2 harboring a plasmid (printed as pSK6)
Description: as §1
Similarly, recombinant glucosyltransferase C (rGTFC) was prepared by using Escherichia coli XL-2 strain harboring a plasmid pSK6 having a gene encoding glucosyltransferase C (GTFC) of Streptococcus mutans and put in use in later experiments.
The rGTFB having a specific activity of 503 mU/mg protein and the rGTFC having a specific activity of 6.3 to 22.3 mU/mg protein were used as a mixture. The activity 1U represents activity of an enzyme in converting glucose ([…]) derived from sucrose into glucan per minute. Protein was quantified by using the bicinchonine acid method (BCA method) (BCA protein assay kit, manufactured by PIERCE).
(§3) With 2 mL of 0.1M KPB (pH6.0) containing 1% sucrose-containing 0.1% dextran T10, rGTFB or rGTFC (amount corresponding to 15 mU (average value)) obtained in Example 2, and each of the above samples (final concentration: 0.1 mg/mL) were mixed. The mixture was incubated at 37° C. overnight. The turbidity (550 nm) of the resultant reaction solution was measured to obtain the yield of glucan insoluble in water. The lower yield of the glucan insoluble in water (in other words, turbidity is low) means that the activity of glucosyltransferase is more inhibited. Note that the control (cont) shown in the figures represents turbidity in the absence of the aforementioned samples.
as §3, with “1% sucrose and” for “1% sucrose-containing”, “Example 2” for “Example 2,”, “concentration: 0.05” for “concentration: 0.1”, “inhibited. […]” for “inhibited. Note that the control (cont) shown in the figures represents turbidity in the absence of the aforementioned samples.”

[3] = test system: glucosyltransferase (GTF); assay: Overall GTF inhibitory activity, conclusion from the rGTFB and rGTFC tests; format: biochemical, Streptococcus mutans; conditions: summary of Examples 3 and 4, GTFB and GTFC
Description: as §3
as §3, with “1% sucrose and” for “1% sucrose-containing”, “Example 2” for “Example 2,”, “concentration: 0.05” for “concentration: 0.1”

[4] = sample final concentration 0.1 mg/mL, FIG. 7
[5] = sample final concentration 0.1 mg/mL, FIG. 8

T2 sequence (P13470 35-1455): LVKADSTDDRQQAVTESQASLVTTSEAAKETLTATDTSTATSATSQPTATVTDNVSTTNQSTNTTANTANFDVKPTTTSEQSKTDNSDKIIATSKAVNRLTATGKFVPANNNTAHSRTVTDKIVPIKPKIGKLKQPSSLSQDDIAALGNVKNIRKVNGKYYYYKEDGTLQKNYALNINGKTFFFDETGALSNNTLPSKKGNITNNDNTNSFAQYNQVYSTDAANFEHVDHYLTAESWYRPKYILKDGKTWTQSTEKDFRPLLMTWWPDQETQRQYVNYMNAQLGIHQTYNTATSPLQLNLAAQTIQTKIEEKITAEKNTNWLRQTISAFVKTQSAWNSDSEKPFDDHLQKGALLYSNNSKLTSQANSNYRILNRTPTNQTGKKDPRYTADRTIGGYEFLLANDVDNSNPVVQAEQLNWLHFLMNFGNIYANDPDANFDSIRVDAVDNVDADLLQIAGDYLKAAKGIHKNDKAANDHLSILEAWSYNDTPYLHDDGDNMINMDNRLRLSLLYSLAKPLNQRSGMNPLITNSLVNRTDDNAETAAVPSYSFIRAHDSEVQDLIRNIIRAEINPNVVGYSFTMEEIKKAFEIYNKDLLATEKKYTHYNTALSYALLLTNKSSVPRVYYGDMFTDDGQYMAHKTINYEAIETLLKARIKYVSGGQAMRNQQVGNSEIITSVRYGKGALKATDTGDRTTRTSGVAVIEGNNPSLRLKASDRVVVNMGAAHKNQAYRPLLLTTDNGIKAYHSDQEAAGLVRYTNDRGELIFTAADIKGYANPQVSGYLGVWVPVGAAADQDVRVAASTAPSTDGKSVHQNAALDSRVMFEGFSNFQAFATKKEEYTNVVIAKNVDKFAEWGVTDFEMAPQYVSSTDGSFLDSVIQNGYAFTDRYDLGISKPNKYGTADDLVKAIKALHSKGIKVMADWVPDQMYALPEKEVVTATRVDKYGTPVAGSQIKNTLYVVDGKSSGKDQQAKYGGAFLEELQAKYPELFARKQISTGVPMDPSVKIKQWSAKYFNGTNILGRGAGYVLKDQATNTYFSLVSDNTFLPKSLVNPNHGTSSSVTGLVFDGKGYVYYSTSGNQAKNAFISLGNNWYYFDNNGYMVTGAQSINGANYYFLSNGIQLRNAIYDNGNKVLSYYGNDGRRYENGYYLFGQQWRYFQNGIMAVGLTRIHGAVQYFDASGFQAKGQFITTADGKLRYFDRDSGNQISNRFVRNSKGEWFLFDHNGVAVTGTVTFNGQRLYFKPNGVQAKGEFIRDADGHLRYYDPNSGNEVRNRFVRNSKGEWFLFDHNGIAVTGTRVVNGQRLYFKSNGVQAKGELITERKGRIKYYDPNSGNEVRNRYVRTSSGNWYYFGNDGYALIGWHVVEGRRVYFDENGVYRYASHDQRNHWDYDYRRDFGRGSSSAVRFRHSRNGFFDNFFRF
T1 sequence (P08987 35-1476): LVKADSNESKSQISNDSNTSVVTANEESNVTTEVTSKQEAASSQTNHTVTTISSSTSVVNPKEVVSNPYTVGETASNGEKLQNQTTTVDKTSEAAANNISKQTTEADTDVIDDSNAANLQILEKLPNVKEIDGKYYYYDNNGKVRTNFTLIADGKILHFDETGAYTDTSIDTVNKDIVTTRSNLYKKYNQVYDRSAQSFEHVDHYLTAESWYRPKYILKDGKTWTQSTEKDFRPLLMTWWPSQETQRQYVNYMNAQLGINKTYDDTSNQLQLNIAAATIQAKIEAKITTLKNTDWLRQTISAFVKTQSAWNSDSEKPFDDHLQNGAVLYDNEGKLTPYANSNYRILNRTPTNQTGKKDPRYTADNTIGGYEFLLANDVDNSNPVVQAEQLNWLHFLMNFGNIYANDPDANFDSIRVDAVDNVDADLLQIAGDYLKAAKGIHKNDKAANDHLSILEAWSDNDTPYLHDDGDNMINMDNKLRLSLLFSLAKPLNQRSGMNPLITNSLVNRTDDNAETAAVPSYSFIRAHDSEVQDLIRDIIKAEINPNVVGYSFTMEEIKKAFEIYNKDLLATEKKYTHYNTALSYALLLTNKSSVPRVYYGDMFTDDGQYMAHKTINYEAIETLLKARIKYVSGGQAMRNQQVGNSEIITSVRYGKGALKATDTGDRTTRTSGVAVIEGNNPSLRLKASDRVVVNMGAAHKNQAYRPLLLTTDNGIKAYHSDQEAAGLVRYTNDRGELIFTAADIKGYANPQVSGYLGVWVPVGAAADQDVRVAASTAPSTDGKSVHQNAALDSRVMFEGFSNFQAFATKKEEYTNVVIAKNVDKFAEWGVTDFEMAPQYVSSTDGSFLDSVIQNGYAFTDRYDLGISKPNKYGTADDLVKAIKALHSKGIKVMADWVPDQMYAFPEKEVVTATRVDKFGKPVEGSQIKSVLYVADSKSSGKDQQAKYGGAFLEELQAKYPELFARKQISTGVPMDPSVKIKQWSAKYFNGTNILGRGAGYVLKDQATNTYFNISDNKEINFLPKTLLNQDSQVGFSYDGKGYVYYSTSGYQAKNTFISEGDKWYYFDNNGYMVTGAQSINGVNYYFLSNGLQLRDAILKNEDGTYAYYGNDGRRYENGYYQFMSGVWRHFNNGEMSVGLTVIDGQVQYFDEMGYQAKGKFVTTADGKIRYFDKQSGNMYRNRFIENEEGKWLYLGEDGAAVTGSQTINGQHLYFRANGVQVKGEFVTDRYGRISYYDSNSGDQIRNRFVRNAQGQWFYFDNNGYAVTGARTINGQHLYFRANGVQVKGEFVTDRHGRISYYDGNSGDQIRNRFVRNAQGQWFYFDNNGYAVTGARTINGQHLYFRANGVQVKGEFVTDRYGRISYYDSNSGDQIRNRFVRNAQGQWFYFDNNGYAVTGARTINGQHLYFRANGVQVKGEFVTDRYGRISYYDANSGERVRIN

Row | Structure (SMILES) | effect on the activity of GTFB (yield of water-insoluble glucan, turbidity) [1, 4] | effect on the activity of GTFC (yield of water-insoluble glucan, turbidity) [2, 5] | GTF inhibitory activity (overall) [3] | effect on the activity of GTFB (yield of water-insoluble glucan, turbidity) ([1]; sample final concentration 0.05 mg/mL, FIG. 9) | effect on the activity of GTFC (yield of water-insoluble glucan, turbidity) ([2]; sample final concentration 0.05 mg/mL, FIG. 10)
1 | O=C(O[C@@H]1Cc2c(O)cc(O)c(Cc3c(O)cc(O)c4c3O[C@H](c3cc(O)c(O)c(O)c3)[C@H](OC(=O)c3cc(O)c(O)c(O)c3)C4)c2O[C@@H]1c1cc(O)c(O)c(O)c1)c1cc(O)c(O)c(O)c1 [OHBF-A, oolong homobisflavan-A] | inhibits | slightly enhances |  |  | 
2 | O=C(O[C@@H]1Cc2c(cc(O)c(Cc3c(O)cc(O)c4c3O[C@H](c3cc(O)c(O)c(O)c3)[C@H](OC(=O)c3cc(O)c(O)c(O)c3)C4)c2O)O[C@@H]1c1cc(O)c(O)c(O)c1)c1cc(O)c(O)c(O)c1 [OHBF-B, oolong homobisflavan-B] | inhibit | inhibit | high |  | 
3 | O=C(O[C@@H]1Cc2c(O)cc(O)c(Cc3c(O)c(Cc4c(O)c(Cc5c(O)cc(O)c6c5O[C@H](c5cc(O)c(O)c(O)c5)[C@H](OC(=O)c5cc(O)c(O)c(O)c5)C6)c(O)c5c4O[C@H](c4cc(O)c(O)c(O)c4)[C@H](OC(=O)c4cc(O)c(O)c(O)c4)C5)c4c(c3O)C[C@@H](OC(=O)c3cc(O)c(O)c(O)c3)[C@@H](c3cc(O)c(O)c(O)c3)O4)c2O[C@@H]1c1cc(O)c(O)c(O)c1)c1cc(O)c(O)c(O)c1 [OHBF-Tet-2, oolong homobisflavan-tetramer-2] |  |  |  | significant inhibitory effect on GTFB was not confirmed | slightly inhibited
4 | O=C(O[C@@H]1Cc2c(O)cc(O)cc2O[C@@H]1c1cc(O)c(O)c(O)c1-c1c([C@H]2Oc3cc(O)cc(O)c3C[C@H]2OC(=O)c2cc(O)c(O)c(O)c2)cc(O)c(O)c1O)c1cc(O)c(O)c(O)c1 [TSN-A, theasinensin A, reference compound] | substantially no effect | extremely enhances |  |  | 
